Experiments:
Format in all cases: in vivo
[1] = tested on: Botrytis cinerea; assay: Test F: tomato Botrytis, preventive spray on tomato seedlings; conditions: 200 ppm, 100 = 100% disease control, 0 = no control relative to controls
Method in brief: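 Compounds dissolved in acetone (3% of final volume), suspended in 50/50 acetone/water with 250 ppm Trem® 014. Sprayed preventively to run-off on tomato seedlings at 200 ppm (500 g/ha) or 40 ppm.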

[2] = tested on: Colletotrichum orbiculare; assay: Test I: cucumber Colletotrichum anthracnose, preventive spray on cucumber seedlings; conditions: 100 = 100% disease control, 0 = no control relative to controls
Method in brief: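 Compound was dissolved in acetone (3% of final volume), then suspended in 50/50 acetone/water with 250 ppm Trem 014 surfactant. Cucumber seedlings were sprayed to run-off as a preventive treatment at 200 ppm (equivalent to 500 g/ha) or 40 ppm.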

[3] = tested on: Plasmopara viticola; assay: Test L: grape downy mildew, spray after inoculation of grape seedlings; conditions: 200 ppm; 100 = 100% disease control, 0 = no control relative to controls
Description: General protocol for preparing test suspensions for Tests A-R: The test compounds were first dissolved in acetone in an amount equal to 3% of the final volume and then suspended at the desired concentration (in ppm) in acetone and purified water (50/50 mix) containing 250 ppm of the surfactant Trem® 014 (polyhydric alcohol esters). The resulting test suspensions were then used in tests A-R. In Tests A-M, compounds were sprayed as a 200 ppm test suspension (equivalent to a rate of 500 g/ha) or as a 40 ppm test suspension to the point of runoff on the test plants. In Tests N-R, compounds were sprayed as a 100 g/ha test suspension (equivalent to a rate of 100 ppm) on the test plants at an application volume of 1000 L/ha. Grape seedlings were inoculated with a spore suspension of Plasmopara viticola (the causal agent of grape downy mildew) and incubated in a saturated atmosphere at 20° C. for 24 h. After a short drying period, the test suspension was sprayed to the point of run-off on the grape seedlings and then moved to a growth chamber at 20° C. for 6 days, after which time the test units were placed back into a saturated atmosphere at 20° C. for 24 h. Upon removal, disease ratings were made.

[4] = tested on: Septoria tritici; assay: Test D: wheat leaf blotch, preventive spray on wheat seedlings; conditions: 200 ppm, 100 = 100% disease control, 0 = no control relative to controls
Method in brief: (§1)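 Two spray concentrations are used, 40 ppm and 200 ppm, the latter matching a rate of 500 g/ha, applied until run-off. The carrier is half acetone, half purified water with 250 ppm surfactant, and acetone for initial dissolution makes up 3% of the volume.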

[5] = tested on: Fusarium graminearum; assay: whole plant or invertebrate
[6] = tested on: Rhizoctonia oryzae; assay: Test J: turf brown patch, preventive spray on creeping bent grass seedlings; conditions: 200 ppm; 100 = 100% disease control, 0 = no control relative to controls
Description: (§2) General protocol for preparing test suspensions for Tests A-R: The test compounds were first dissolved in acetone in an amount equal to 3% of the final volume and then suspended at the desired concentration (in ppm) in acetone and purified water (50/50 mix) containing 250 ppm of the surfactant Trem® 014 (polyhydric alcohol esters). The resulting test suspensions were then used in tests A-R. In Tests A-M, compounds were sprayed as a 200 ppm test suspension (equivalent to a rate of 500 g/ha) or as a 40 ppm test suspension to the point of runoff on the test plants. In Tests N-R, compounds were sprayed as a 100 g/ha test suspension (equivalent to a rate of 100 ppm) on the test plants at an application volume of 1000 L/ha. The test suspension was sprayed to the point of run-off on creeping bent grass seedlings.

[7] = tested on: Sclerotinia sclerotiorum; assay: Test G: cucumber white mold, preventive spray on cucumber seedlings; conditions: 200 ppm; 100 = 100% disease control, 0 = no control relative to controls
Description: as §2, with “cucumber” for “creeping bent grass”

[8] = tested on: Pythium aphanidermatum; assay: Test M: bluegrass pythium blight, preventive spray on bluegrass seedlings; conditions: 200 ppm; 100 = 100% disease control, 0 = no control relative to controls
[9] = tested on: Puccinia recondita f. sp. tritici; assay: Test B: wheat leaf rust, preventive spray on wheat seedlings; conditions: 200 ppm, 100 = 100% disease control, 0 = no control relative to controls
Method in brief: as §1

[10] = tested on: Erysiphe graminis f. sp. tritici; assay: Test A: wheat powdery mildew, preventive spray on wheat seedlings; conditions: 200 ppm, 100 = 100% disease control, 0 = no control relative to controls
Method in brief: as §1

[11] = tested on: Phytophthora infestans; conditions: 200 ppm; 100 = 100% disease control, 0 = no control relative to controls
[12] = tested on: Septoria nodorum; assay: Test C: wheat glume blotch, preventive spray on wheat seedlings; conditions: 200 ppm, 100 = 100% disease control, 0 = no control relative to controls
Method in brief: as §1

| Structure (SMILES) | pest or weed control at 200 ppm ([1]; Botrytis cinerea, 120 h, read-out: Test F disease control rating) [%] | pest or weed control at 200 ppm ([2]; Colletotrichum orbiculare, 144 h, read-out: Test I disease control rating) [%] | Test L disease control rating [3] [%] | pest or weed control at 200 ppm ([4]; Zymoseptoria tritici, 504 h, read-out: Test D disease control rating) [%] | pest or weed control at 200 ppm ([5]; Fusarium graminearum, in Triticum aestivum, 192 h, read-out: Test E disease control rating) [%] | Test J disease control rating [6] [%] | Test G disease control rating [7] [%] | Test M disease control rating [8] [%] | pest or weed control at 200 ppm ([9]; Puccinia recondita, 192 h, read-out: Test B disease control rating) [%] | pest or weed control at 200 ppm ([10]; Blumeria graminis, 192 h, read-out: Test A disease control rating) [%] | Test K disease control rating [11] [%] | pest or weed control at 200 ppm ([12]; Parastagonospora nodorum, 216 h, read-out: Test C disease control rating) [%] | Test F disease control rating [1] [%] | Test I disease control rating ([2]; 200 ppm) [%] | Test D disease control rating [4] [%] | Test E disease control rating ([5]; 200 ppm, 100 = 100% disease control, 0 = no control relative to controls) [%] | Test B disease control rating [9] [%] | Test A disease control rating [10] [%] | Test C disease control rating [12] [%] |
| --- | --- | --- | --- | --- | --- | --- | --- | --- | --- | --- | --- | --- | --- | --- | --- | --- | --- | --- | --- |
| COCC(C)Nc1nccc(-c2ccnc(Nc3cccc(Cl)c3)c2)n1 (stereo not drawn) [Compound 40, 4-[2-[(3-chlorophenyl)amino]-4-pyridinyl]-N-(2-methoxy-1-methylethyl)-2-pyrimidinamine] | 99 | 84 | 0 | 27 | 48 | 0 | 83 | 0 | 90 | 63 | 0 | 99 |  |  |  |  |  |  |  |
| COCC(C)Nc1nccc(-c2ccnc(Nc3cccc(F)c3)c2)n1 (stereo not drawn) [Compound 41] |  |  | 0 |  |  | 34 | 94 | 0 |  |  | 0 |  | 96 | 54 | 15 | 45 | 98 | 57 | 99 |
